The values that follow come from US20210228562A1, “IRAK DEGRADERS AND USES THEREOF” (Kymera Therapeutics, Inc., priority 2019, published 2021).

Some results are limits rather than exact numbers.

T2 sequence (Q13422 whole entry): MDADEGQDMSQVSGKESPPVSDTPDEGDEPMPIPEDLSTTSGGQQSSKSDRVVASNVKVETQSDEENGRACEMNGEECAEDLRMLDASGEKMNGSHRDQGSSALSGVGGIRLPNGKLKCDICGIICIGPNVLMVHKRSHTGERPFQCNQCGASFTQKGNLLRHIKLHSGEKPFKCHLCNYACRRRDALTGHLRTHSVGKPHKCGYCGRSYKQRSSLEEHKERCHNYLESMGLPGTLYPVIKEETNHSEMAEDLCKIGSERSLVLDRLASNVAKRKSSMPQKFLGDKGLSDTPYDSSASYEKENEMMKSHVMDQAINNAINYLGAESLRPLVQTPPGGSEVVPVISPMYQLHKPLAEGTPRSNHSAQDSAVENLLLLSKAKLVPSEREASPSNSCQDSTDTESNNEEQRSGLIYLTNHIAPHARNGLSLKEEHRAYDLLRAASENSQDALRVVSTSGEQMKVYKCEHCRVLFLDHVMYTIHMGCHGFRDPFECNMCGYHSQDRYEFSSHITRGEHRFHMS
T2 sequence (Q96SW2 whole entry): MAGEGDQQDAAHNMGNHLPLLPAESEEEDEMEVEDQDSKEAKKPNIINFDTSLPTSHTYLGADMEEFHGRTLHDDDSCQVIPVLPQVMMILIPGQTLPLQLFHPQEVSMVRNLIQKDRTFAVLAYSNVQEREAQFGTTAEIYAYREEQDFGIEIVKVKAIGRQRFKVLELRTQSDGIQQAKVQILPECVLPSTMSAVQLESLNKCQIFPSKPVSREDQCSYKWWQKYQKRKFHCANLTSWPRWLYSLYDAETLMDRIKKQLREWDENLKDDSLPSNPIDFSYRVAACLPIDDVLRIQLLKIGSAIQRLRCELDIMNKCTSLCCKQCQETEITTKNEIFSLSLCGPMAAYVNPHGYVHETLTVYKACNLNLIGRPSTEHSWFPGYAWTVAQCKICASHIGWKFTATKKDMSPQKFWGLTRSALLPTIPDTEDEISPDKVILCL
T2 sequence (Q16531 whole entry partner): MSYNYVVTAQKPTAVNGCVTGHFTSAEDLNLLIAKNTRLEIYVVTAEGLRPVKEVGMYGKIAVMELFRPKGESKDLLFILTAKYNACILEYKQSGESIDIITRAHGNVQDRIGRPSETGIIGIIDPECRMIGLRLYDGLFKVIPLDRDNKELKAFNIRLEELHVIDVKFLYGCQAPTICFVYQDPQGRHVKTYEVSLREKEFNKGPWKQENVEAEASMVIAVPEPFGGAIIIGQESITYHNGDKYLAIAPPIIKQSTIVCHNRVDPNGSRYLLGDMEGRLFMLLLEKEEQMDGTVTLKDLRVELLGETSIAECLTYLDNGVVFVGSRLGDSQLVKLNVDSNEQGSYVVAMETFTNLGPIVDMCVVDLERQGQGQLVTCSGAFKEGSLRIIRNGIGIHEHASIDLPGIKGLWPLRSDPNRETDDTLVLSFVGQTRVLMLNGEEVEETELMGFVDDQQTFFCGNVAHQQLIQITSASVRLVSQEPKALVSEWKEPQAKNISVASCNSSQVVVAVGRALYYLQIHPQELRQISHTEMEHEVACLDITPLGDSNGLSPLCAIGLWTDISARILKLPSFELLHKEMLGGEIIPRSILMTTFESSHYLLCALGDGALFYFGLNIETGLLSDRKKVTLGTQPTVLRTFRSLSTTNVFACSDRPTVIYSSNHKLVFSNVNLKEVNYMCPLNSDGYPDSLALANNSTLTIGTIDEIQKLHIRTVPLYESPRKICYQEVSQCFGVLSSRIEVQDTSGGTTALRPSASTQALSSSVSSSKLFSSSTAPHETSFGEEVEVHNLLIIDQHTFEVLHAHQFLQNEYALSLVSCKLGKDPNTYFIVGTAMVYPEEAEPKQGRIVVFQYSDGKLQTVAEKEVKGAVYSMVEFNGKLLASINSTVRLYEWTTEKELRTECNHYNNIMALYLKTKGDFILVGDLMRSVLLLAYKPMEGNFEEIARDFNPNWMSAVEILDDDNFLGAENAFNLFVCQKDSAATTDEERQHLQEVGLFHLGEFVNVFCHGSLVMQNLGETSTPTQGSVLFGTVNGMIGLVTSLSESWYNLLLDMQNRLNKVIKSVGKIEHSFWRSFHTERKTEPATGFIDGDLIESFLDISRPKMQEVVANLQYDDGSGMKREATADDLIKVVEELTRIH

For the first test, the target named is T1, IRAK4 (Homo sapiens, UniProt Q9NWZ3).
T1 construct: endogenous in cells; host or cells: OCI-LY10
T1 sequence (Q9NWZ3 1-460): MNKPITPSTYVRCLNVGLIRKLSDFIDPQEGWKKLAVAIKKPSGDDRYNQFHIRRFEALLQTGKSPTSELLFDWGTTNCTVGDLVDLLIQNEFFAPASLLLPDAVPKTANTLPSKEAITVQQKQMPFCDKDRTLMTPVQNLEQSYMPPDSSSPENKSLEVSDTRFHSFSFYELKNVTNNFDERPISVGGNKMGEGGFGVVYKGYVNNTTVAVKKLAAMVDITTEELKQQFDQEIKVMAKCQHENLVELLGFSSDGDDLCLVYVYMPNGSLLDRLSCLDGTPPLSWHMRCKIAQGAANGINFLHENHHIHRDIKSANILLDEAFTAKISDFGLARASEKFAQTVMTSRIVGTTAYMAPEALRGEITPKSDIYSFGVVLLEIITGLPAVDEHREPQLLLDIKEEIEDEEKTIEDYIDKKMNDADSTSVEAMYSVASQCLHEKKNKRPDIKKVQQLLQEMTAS
As to the kind of experiment: IRAK4 MSD Degradation in OCI-LY10. Type of test: cell-based. The conditions noted are these: OCI-LY10 cells, 24 hrs incubation; read-out: IRAK4 degradation in OCI-LY10 at 24 hrs: DC50. As to the method:
Degradation of IRAK4 in OCI-LY10 was quantitatively measured using Meso Scale Discovery technology. OCI-LY10 cells were seeded in 96-well plates (Corning 3799) with a density of 300,000 cells per well in 100 μL fresh media. Compounds were then added to the assay plates with a final top concentration of 1 to 10 μM in a 1:3 dilution series with total of 8 doses. The assay plates were then incubated for 4 to 24 hours at 37° C. under 5% CO2. The assay plates were then centrifuged for 5 minutes and the cell pellets were treated with 100 μL/well RIPA lysis buffer (Boston BioProducts BP-115D) with proteinase inhibitors. To prepare MSD assay plates (Meso Scale Discovery Catalog number L15XA-3), the plates were coated with 2 μg/mL capture antibody (mouse Anti-IRAK4 antibody [2H9], ab119942) in PBS, at 40 μL/well. The plates were then incubated overnight at 4° C., washed 3 times with 150 μL/well TBST buffer (Cell Signaling Technology, Catalog number 9997S) and blocked with 150 μL/well blocking buffer (Meso Scale Discovery Catalog number R93BA-4). Cell lysates were then added to MSD assay plates and the plates were incubated at room temperature for 1 hour. The plates were then washed 3 times with 150 μL/well TBST buffer and 25 μL/well primary detection antibody (rabbit Anti-IRAK4 antibody [Y279], from Abcam. Catalog number ab32511, 1 μg/mL). The assay plates were then incubated at room temperature for 1 hour, washed 3 times with 150 μL/well TBST buffer and 25 μL/well secondary detection antibody, SULFO-TAG anti-rabbit antibody were added (anti rabbit antibody from Meso Scale Discovery, Catalog number R32AB-1, 1 μg/mL). The assay plates were then incubated at room temperature for 1 hour, washed 3 times with 150 μL/well TBST buffer, and 150 μL/well MSD reading buffer (Meso Scale Discovery catalog number R92TC-2) was added. The plates were then analyzed by a MSD reader (Meso Scale Discovery, Model Quick Plex SQ 120). The data was then analyzed by software Prism 7.0 from GraphPad and the dose-depended IRAK4 degradation were fit using a three-parameter logistic equation to calculate DC50.
`CC(C)(O)c1cc2nc([C@H]3CC[C@H](CN4CCC5(CC4)CC(CNc4cccc6c4C(=O)N(C4CCC(=O)NC4=O)C6=O)C5)CC3)sc2cc1NC(=O)c1cccc(C(F)(F)F)n1` (stereo partly shown) [I-29]: the DC50 is less than 50 nM.

Take `CC(C)(O)c1cc2nc([C@H]3CC[C@H](CN4CC5(CCC(CNc6cccc7c6C(=O)N(C6CCC(=O)NC6=O)C7=O)CC5)C4)CC3)sc2cc1NC(=O)c1cccc(C(F)(F)F)n1` (stereo partly shown) [I-30]: the half-maximal degradation concentration (DC50) is less than 50 nM.

Regarding `C[C@H](CNc1cccc2c1C(=O)N(C1CCC(=O)NC1=O)C2=O)C1CC2(C1)CN(C[C@H]1CC[C@H](c3nc4cc(C(C)(C)O)c(NC(=O)c5cccc(C(F)(F)F)n5)cc4s3)CC1)C2` (stereo partly shown) [I-31], the 50% degradation concentration (DC50) was less than 50 nM.

For `C[C@@H](CNc1cccc2c1C(=O)N(C1CCC(=O)NC1=O)C2=O)C1CC2(C1)CN(C[C@H]1CC[C@H](c3nc4cc(C(C)(C)O)c(NC(=O)c5cccc(C(F)(F)F)n5)cc4s3)CC1)C2` (stereo partly shown) [I-32], the DC50 is less than 50 nM.

The next test has as its target T2, Ikaros (protein product of gene IKZF1) (Homo sapiens, UniProt Q13422+Q96SW2).
T2 construct: endogenous in cells; host or cells: OCI-LY10
As to the kind of experiment: Quantification of Ikaros degradation in OCI-LY10 cells (quantitative immunoblotting). The conditions noted are these: 6 h treatment. Type of test: cell-based. As to the method: (§1) Degradation of Ikaros (protein product of gene IKZF1) and Aiolos (protein product of gene IKZF3) were determined by quantitative immunoblotting as follows. OCI-LY10 cells, 2×10^6 cells/well, were treated with listed concentrations of IRAK4 degraders or control compounds in 6 well plates for 6 h. Cells were collected, washed with cold PBS, lysed in RIPA buffer (Boston BioProducts BP-115D) with protease/phosphatase inhibitor cocktail (Roche 05892791001/Roche 04906837001) and centrifuged at 13000 RPM for 20 min to precipitate insoluble material. The supernatant fraction was diluted in SDS-PAGE loading buffer (Beyotime Bio P0015) and 20 μL of each sample was resolved on 4-12% Bis-Tris SDS-PAGE gels (Novex, WG1402BOX). Resolved samples were transferred to nitrocellulose membranes by wet electro-transfer method at 250 mV for 1.5 h. The membrane was blocked with LICOR blocking buffer (LI-COR, 927-50000) for 1 hour, washed three times with TBST (CST #99975) for 5 minutes each and incubated with primary antibody prepared in block buffer with 0.1% Tween-20 (Solarbio, P8220) at 4° C. overnight. Ikaros antibody was rabbit monoclonal D6N9Y (CST #14859), at 1:1000 dilution. Aiolos antibody was rabbit monoclonal D1C1E (CST #15103), at 1:1000 dilution. Signal was normalized to mouse anti-beta-Actin monoclonal 8H10D10 (CST #3700) used at 1:10,000 dilution. After incubation in primary antibodies, membranes were washed three times with TBST, 5 minutes each, incubated with fluorescently labeled secondary antibodies anti-rabbit IgG (Licor, 926-32211) at 1:5000 dilution; anti-mouse IgG (LI-COR, 926-68070) at 1:5000 dilution, for 1 hour at RT. After incubation in secondary, membranes were washed three times with TBST, 5 minutes each and read on LICOR Odyssey imager. Data was reported as signal for Ikaros or Aiolos relative to signal for actin, and normalized to DMSO-treated control.
`CC(C)(O)c1cc2nc([C@H]3CC[C@H](CN4CCC5(CC4)CC(CNc4cccc6c4C(=O)N(C4CCC(=O)NC4=O)C6=O)C5)CC3)sc2cc1NC(=O)c1cccc(C(F)(F)F)n1` (stereo partly shown) [I-29] displayed a half-maximal degradation concentration (DC50) of less than 50 nM.

Molecule `CC(C)(O)c1cc2nc([C@H]3CC[C@H](CN4CC5(CCC(CNc6cccc7c6C(=O)N(C6CCC(=O)NC6=O)C7=O)CC5)C4)CC3)sc2cc1NC(=O)c1cccc(C(F)(F)F)n1` (stereo partly shown) [I-30] returned a half-maximal degradation concentration (DC50) of less than 50 nM.

In the case of `C[C@H](CNc1cccc2c1C(=O)N(C1CCC(=O)NC1=O)C2=O)C1CC2(C1)CN(C[C@H]1CC[C@H](c3nc4cc(C(C)(C)O)c(NC(=O)c5cccc(C(F)(F)F)n5)cc4s3)CC1)C2` (stereo partly shown) [I-31], the half-maximal degradation concentration (DC50) is less than 50 nM.

Molecule `C[C@@H](CNc1cccc2c1C(=O)N(C1CCC(=O)NC1=O)C2=O)C1CC2(C1)CN(C[C@H]1CC[C@H](c3nc4cc(C(C)(C)O)c(NC(=O)c5cccc(C(F)(F)F)n5)cc4s3)CC1)C2` (stereo partly shown) [I-32] returned a 50% degradation concentration (DC50) of less than 50 nM.

For another test, the target named is T3, Aiolos (protein product of gene IKZF3) (Homo sapiens, UniProt Q96SW2+Q9UKT9).
T3 construct: endogenous in cells; host or cells: OCI-LY10
T3 sequence (Q9UKT9 whole entry): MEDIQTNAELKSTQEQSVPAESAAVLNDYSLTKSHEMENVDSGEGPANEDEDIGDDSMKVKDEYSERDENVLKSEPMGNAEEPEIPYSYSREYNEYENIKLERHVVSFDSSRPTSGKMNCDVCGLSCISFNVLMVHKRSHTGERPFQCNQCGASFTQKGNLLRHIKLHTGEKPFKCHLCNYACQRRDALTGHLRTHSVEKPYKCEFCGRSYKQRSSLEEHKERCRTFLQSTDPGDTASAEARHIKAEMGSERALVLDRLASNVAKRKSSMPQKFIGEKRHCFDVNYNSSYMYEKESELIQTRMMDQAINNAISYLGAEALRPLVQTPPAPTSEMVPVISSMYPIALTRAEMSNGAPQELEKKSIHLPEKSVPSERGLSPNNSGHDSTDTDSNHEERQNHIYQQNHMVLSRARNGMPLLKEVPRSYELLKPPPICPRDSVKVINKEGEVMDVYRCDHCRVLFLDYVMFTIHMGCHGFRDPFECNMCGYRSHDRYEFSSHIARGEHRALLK
T3 sequence (Q96SW2 whole entry): as the sequence (Q96SW2 whole entry) above
T3 sequence (Q16531 whole entry partner): as the sequence (Q16531 whole entry partner) above
As to the kind of experiment: Quantification of Aiolos degradation in OCI-LY10 cells (quantitative immunoblotting). Type of test: cell-based. The conditions noted are these: 6 h treatment. As to the method: as §1
(In general: A western blot detects proteins with antibodies after separation by electrophoresis.)
Molecule `CC(C)(O)c1cc2nc([C@H]3CC[C@H](CN4CCC5(CC4)CC(CNc4cccc6c4C(=O)N(C4CCC(=O)NC4=O)C6=O)C5)CC3)sc2cc1NC(=O)c1cccc(C(F)(F)F)n1` (stereo partly shown) [I-29] showed a DC50 of less than 50 nM.

In the case of `CC(C)(O)c1cc2nc([C@H]3CC[C@H](CN4CC5(CCC(CNc6cccc7c6C(=O)N(C6CCC(=O)NC6=O)C7=O)CC5)C4)CC3)sc2cc1NC(=O)c1cccc(C(F)(F)F)n1` (stereo partly shown) [I-30], the half-maximal degradation concentration (DC50) was less than 50 nM.

In the case of `C[C@H](CNc1cccc2c1C(=O)N(C1CCC(=O)NC1=O)C2=O)C1CC2(C1)CN(C[C@H]1CC[C@H](c3nc4cc(C(C)(C)O)c(NC(=O)c5cccc(C(F)(F)F)n5)cc4s3)CC1)C2` (stereo partly shown) [I-31], the DC50 was less than 50 nM.

As to `C[C@@H](CNc1cccc2c1C(=O)N(C1CCC(=O)NC1=O)C2=O)C1CC2(C1)CN(C[C@H]1CC[C@H](c3nc4cc(C(C)(C)O)c(NC(=O)c5cccc(C(F)(F)F)n5)cc4s3)CC1)C2` (stereo partly shown) [I-32], the half-maximal degradation concentration (DC50) is less than 50 nM.

The test system of the next test is OCI-LY10 cells. As to the kind of experiment: CTG Cell Viability Assay - OCI-LY10. It is filed as cell-based. The conditions noted are these: Homo sapiens, 96 h, CellTiter-Glo, 4 days incubation. The method, then:
Compound-mediated viability effect on OCI-LY10 or SUDHL-2 was quantitatively determined using the CellTiter-Glo® Luminescent Cell Viability Assay kit from Promega (Catalog number G7570) following manufacturer's recommended procedures. Briefly, OCI-LY10 or SUDHL-2 cells were seeded into 384 well plates (Grenier Bio-One, Catalog number 781080) with a density of 10,000 cells per well. Compounds were then added to the assay plate with final top concentration of 10 μM and 1:3 dilution series with total of 9 doses. The final DMSO concentration was normalized to 0.2%. The assay plates were incubated at 37° C. for 4 days under 5% CO2. Then the assay plate was equilibrated at room temperature for 10 minutes. To determine cell viability, 30 μL CellTiter Glo reagent was added to each well and the assay plate was centrifuged at 1000 rpm for 30 second, incubated at room temperature for 10 min, and analyzed by detecting the luminescence using a multimode plate reader (EnVision 2105, PerkinElmer). The data was then analyzed by software Prism 7.0 from GraphPad and the dose response curves were fit using a three-parameter logistic equation to calculate IC50.
In turn, `CC(C)(O)c1cc2nc([C@H]3CC[C@H](CN4CCC5(CC4)CC(CNc4cccc6c4C(=O)N(C4CCC(=O)NC4=O)C6=O)C5)CC3)sc2cc1NC(=O)c1cccc(C(F)(F)F)n1` (stereo partly shown) [I-29] gave an IC50 of less than 50 nM.

`CC(C)(O)c1cc2nc([C@H]3CC[C@H](CN4CC5(CCC(CNc6cccc7c6C(=O)N(C6CCC(=O)NC6=O)C7=O)CC5)C4)CC3)sc2cc1NC(=O)c1cccc(C(F)(F)F)n1` (stereo partly shown) [I-30] showed an IC50 of 50 to 100 nM.

`C[C@H](CNc1cccc2c1C(=O)N(C1CCC(=O)NC1=O)C2=O)C1CC2(C1)CN(C[C@H]1CC[C@H](c3nc4cc(C(C)(C)O)c(NC(=O)c5cccc(C(F)(F)F)n5)cc4s3)CC1)C2` (stereo partly shown) [I-31] had a half-maximal inhibitory concentration (IC50) of less than 50 nM.

With `C[C@@H](CNc1cccc2c1C(=O)N(C1CCC(=O)NC1=O)C2=O)C1CC2(C1)CN(C[C@H]1CC[C@H](c3nc4cc(C(C)(C)O)c(NC(=O)c5cccc(C(F)(F)F)n5)cc4s3)CC1)C2` (stereo partly shown) [I-32], the half-maximal inhibitory concentration (IC50) was in the range of 50 to 100 nM.

One may read the DC50 as the midpoint of the concentration-degradation curve. The term IC50 denotes the concentration that gives 50% inhibition. Read a low IC50 as higher potency.
